Drawing on patent publication US9018388B2, “Pesticidal compositions and processes related thereto” (Dow AgroSciences LLC, priority 2012, dated 2015), this text covers pest or weed control for 24 compounds.

What all share (assay type): in vivo
The subject of assay [1] is Beet Armyworm (BAW) (Spodoptera exigua). As to the kind of experiment: Bioassay on beet armyworm (BAW), 128-well diet tray assay. Particulars: Spodoptera exigua; Beet armyworm, 50 μg/cm^2; read-out: % Mortality BAW 50 μg/cm^2. Put shortly:
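Second-instar Spodoptera exigua larvae, one to five per well, on artificial diet treated with 50 μg/cm^2 compound in 90:10 acetone-water and dried, eight wells per compound. Held at 25 °C, 14:10 light-dark for five to seven days; percent mortality averaged over wells.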

The test system of assay [2] is Corn Earworm (CEW) (Helicoverpa zea). As to the kind of experiment: Bioassay on corn earworm (CEW), 128-well diet tray assay. Conditions: Helicoverpa zea; Corn earworm, 50 μg/cm^2; read-out: % Mortality CEW 50 μg/cm^2. The method in brief:
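Second-instar Helicoverpa zea larvae (one to five per well) placed on artificial diet treated with 50 μg/cm^2 compound in 90:10 acetone-water, dried, eight wells per compound. Held at 25 °C, 14:10 light-dark, five to seven days; percent mortality averaged over wells.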

Assay [3] has as its system Green Peach Aphid (GPA) (Myzus persicae). As to the kind of experiment: Bioassay on green peach aphid (GPA), foliar spray on cabbage seedlings. Particulars: 72 h, read-out: % Mortality GPA 200 ppm. How it is done:
Bioassays on Green Peach Aphid (“GPA”) (Myzus persicae)
Certain molecules disclosed in this document were tested against GPA using procedures described in the following example. In the reporting of the results, the “GPA Rating Table” was used (See Table Section).
Cabbage seedlings grown in 3-inch pots, with 2-3 small (3-5 cm) true leaves, were used as test substrate. The seedlings were infested with 20-50 GPA (wingless adult and nymph stages) one day prior to chemical application. Four pots with individual seedlings were used for each treatment. Test compounds (2 mg) were dissolved in 2 mL of acetone/methanol (1:1) solvent, forming stock solutions of 1000 ppm test compound. The stock solutions were diluted 5× with 0.025% Tween 20 in H2O to obtain the solution at 200 ppm test compound. A hand-held aspirator-type sprayer was used for spraying a solution to both sides of […] leaves until runoff. Reference plants (solvent check) were sprayed with the diluent only containing 20% by volume of acetone/methanol (1:1) solvent. Treated plants were held in a holding room for three days at approximately 25° C. and ambient relative humidity (RH) prior to grading. Evaluation was conducted by counting the number of live aphids per plant under a microscope. Percent Control was measured by using Abbott's correction formula (W. S. Abbott, “A Method of Computing the Effectiveness of an Insecticide” J. Econ. Entomol. 18 (1925), pp. 265-267) as follows. Corrected%Control=100*(X−Y)/X • where • X=No. of live aphids on solvent check plants and • Y=No. of live aphids on treated plants
The results are indicated in the table entitled “Table 5: Biological Results” (See Table Section).

Consider `CC(C)c1ccccc1N1C(=O)CCSC1=NN=Cc1ccc(-c2ncn(-c3ccc(OC(F)(F)F)cc3)n2)cc1` (stereo in doubt) [Compound 224C, (Z)-3-(2-isopropylphenyl)-2-((E)-(4-(1-(4-(trifluoromethoxy)phenyl)-1H-1,2,4-triazol-3-yl)benzylidene)hydrazono)-1,3-thiazinan-4-one], for which the pest or weed control at 50 µg/cm2, 50 µg/cm2 in assay [1] and in assay [2] was 50 to 100% in each case. In addition, the pest or weed control at 200 ppm in assay [3] lay in the range of 0 to 80%.
In the case of `Cc1cccc(C)c1/N=C(/N/N=C/c1ccc(-c2ncn(-c3ccc(OC(F)(F)F)cc3)n2)cc1)SC/C=C/Br` [Compound 4C], the pest or weed control at 50 µg/cm2, 50 µg/cm2 in assay [1] and in assay [2] was 50 to 100% throughout. For the same compound, the pest or weed control at 200 ppm in assay [3] lay within 0 to 80%.
Turning to `Cc1cccc(C)c1/N=C(/N/N=C/c1ccc(-c2ncn(-c3ccc(OC(F)(F)F)cc3)n2)cc1)SCc1c(F)cccc1F` [Compound 5C], the pest or weed control at 50 µg/cm2, 50 µg/cm2 in assay [1] and in assay [2] was 50 to 100% each time. Moreover, the pest or weed control at 200 ppm in assay [3] is 0 to 80%.
For `Cc1cccc(C)c1/N=C(/N/N=C/c1ccc(-c2ncn(-c3ccc(OC(F)(F)F)cc3)n2)cc1)SCc1ccc(OC(F)(F)F)cc1` [Compound 8C], the pest or weed control at 50 µg/cm2, 50 µg/cm2 in assay [1] and in assay [2] was 50 to 100% in each case. For the same compound, in assay [3], the pest or weed control at 200 ppm lay in the range of 0 to 80%.
With `COC(=O)c1ccc(CS/C(=N\c2c(C)cccc2C)N/N=C/c2ccc(-c3ncn(-c4ccc(OC(F)(F)F)cc4)n3)cc2)cc1` [Compound 12C], the pest or weed control at 50 µg/cm2, 50 µg/cm2 in assay [1] and in assay [2] was 50 to 100% in each case. In addition, in assay [3], the pest or weed control at 200 ppm fell in the range of 0 to 80%.
For `Cc1cccc(C)c1/N=C(/N/N=C/c1ccc(-c2ncn(-c3ccc(OC(F)(F)F)cc3)n2)cc1)SCc1ccc(S(N)(=O)=O)cc1` [Compound 13C], the pest or weed control at 50 µg/cm2, 50 µg/cm2 in assay [1] and in assay [2] was 50 to 100% each time. Besides, the pest or weed control at 200 ppm in assay [3] was 0 to 80%.
As for `Cc1cccc(C)c1/N=C(/N/N=C/c1ccc(-c2ncn(-c3ccc(OC(F)(F)F)cc3)n2)cc1)SCc1cccc2nsnc12` [Compound 14C], the pest or weed control at 50 µg/cm2, 50 µg/cm2 in assay [1] and in assay [2] was 50 to 100% in each case. The pest or weed control at 200 ppm in assay [3] was in the range of 0 to 80%.
As to `Cc1cccc(C)c1/N=C(/N/N=C/c1ccc(-c2ncn(-c3ccc(OC(F)(F)F)cc3)n2)cc1)SCc1ocnc1-c1ccccc1` [Compound 15C], the pest or weed control at 50 µg/cm2, 50 µg/cm2 in assay [1] and in assay [2] was 50 to 100% in each case. Also, the pest or weed control at 200 ppm in assay [3] was in the range of 80 to 100%.
As for `Cc1cccc(C)c1/N=C(/N/N=C/c1ccc(-c2ncn(-c3ccc(OC(F)(F)F)cc3)n2)cc1)SCc1ccc(S(C)(=O)=O)cc1` [Compound 17C], the pest or weed control at 50 µg/cm2, 50 µg/cm2 in assay [1] and in assay [2] was 50 to 100% in each case. For the same compound, the pest or weed control at 200 ppm in assay [3] fell in the range of 0 to 80%.
Turning to `Cc1cccc(C)c1/N=C(/N/N=C/c1ccc(-c2ncn(-c3ccc(OC(F)(F)F)cc3)n2)cc1)SCc1ccc(S(=O)(=O)Nc2ccc(F)cc2)cc1` [Compound 18C], the pest or weed control at 50 µg/cm2, 50 µg/cm2 in assay [1] and in assay [2] was 50 to 100% each time. Moreover, the pest or weed control at 200 ppm in assay [3] is 0 to 80%.
Take `Cc1cccc(C)c1/N=C(/N/N=C/c1ccc(-c2ncn(-c3ccc(OC(F)(F)F)cc3)n2)cc1)SCc1cc2c(C(F)(F)F)nn(C)c2s1` [Compound 19C]: the pest or weed control at 50 µg/cm2, 50 µg/cm2 in assay [1] and in assay [2] was 50 to 100% each time. Moreover, in assay [3], the pest or weed control at 200 ppm was in the range of 0 to 80%.
Turning to `CCOCC(=O)OCS/C(=N\c1c(C)cccc1C)N/N=C/c1ccc(-c2ncn(-c3ccc(OC(F)(F)F)cc3)n2)cc1` [Compound 22C], the pest or weed control at 50 µg/cm2, 50 µg/cm2 in assay [1] and in assay [2] was 50 to 100% in each case. Besides, the pest or weed control at 200 ppm in assay [3] lay within 0 to 80%.
For `Cc1cccc(C)c1/N=C(/N/N=C/c1ccc(-c2ncn(-c3ccc(OC(F)(F)F)cc3)n2)cc1)SCOC(=O)OC(C)C` [Compound 24C], the pest or weed control at 50 µg/cm2, 50 µg/cm2 in assay [1] and in assay [2] was 50 to 100% throughout. Also, the pest or weed control at 200 ppm in assay [3] was in the range of 0 to 80%.
For `COc1cc(C)c(/N=C(/N/N=C/c2ccc(-c3ncn(-c4ccc(OC(F)(F)F)cc4)n3)cc2)SCOC(=O)C(C)C)c(C)c1` [Compound 27C], the pest or weed control at 50 µg/cm2, 50 µg/cm2 in assay [1] and in assay [2] was 50 to 100% in each case. The pest or weed control at 200 ppm in assay [3] was 0 to 80%.
Turning to `COc1cc(C)c(/N=C(/N/N=C/c2ccc(-c3ncn(-c4ccc(OC(F)(F)F)cc4)n3)cc2)SCOC(=O)CNC(=O)OCc2ccccc2)c(C)c1` [Compound 28C], the pest or weed control at 50 µg/cm2, 50 µg/cm2 in assay [1] and in assay [2] was 50 to 100% each time. In assay [3], the pest or weed control at 200 ppm was 0 to 80%.
Turning to `CCOCC(=O)OCS/C(=N\c1c(C)cc(OC)cc1C)N/N=C/c1ccc(-c2ncn(-c3ccc(OC(F)(F)F)cc3)n2)cc1` [Compound 29C], the pest or weed control at 50 µg/cm2, 50 µg/cm2 in assay [1] and in assay [2] was 50 to 100% in each case. For the same compound, in assay [3], the pest or weed control at 200 ppm lay in the range of 0 to 80%.
Consider `Cc1cccc(C)c1/N=C(/N/N=C/c1ccc(-c2ncn(-c3ccc(OC(F)(F)F)cc3)n2)cc1)SCOC(=O)CNC(=O)OC(C)(C)C` [Compound 30C], for which the pest or weed control at 50 µg/cm2, 50 µg/cm2 in assay [1] and in assay [2] was 50 to 100% in each case. Besides, the pest or weed control at 200 ppm in assay [3] was in the range of 0 to 80%.
Take `CC(=O)OCS/C(=N\c1c(C)cccc1C)N/N=C/c1ccc(-c2ncn(-c3ccc(OC(F)(F)F)cc3)n2)cc1` [Compound 31C]: the pest or weed control at 50 µg/cm2, 50 µg/cm2 in assay [1] and in assay [2] was 50 to 100% throughout. Moreover, the pest or weed control at 200 ppm in assay [3] lay within 0 to 80%.
Turning to `CCOCC(=O)OCS/C(=N\c1c(Cl)cc(OC)cc1Cl)N/N=C/c1ccc(-c2ncn(-c3ccc(OC(F)(F)F)cc3)n2)cc1` [Compound 32C], the pest or weed control at 200 ppm in assay [3] fell in the range of 0 to 80%.
In the case of `COc1cc(Cl)c(/N=C(/N/N=C/c2ccc(-c3ncn(-c4ccc(OC(F)(F)F)cc4)n3)cc2)SCOC(=O)OC(C)C)c(Cl)c1` [Compound 33C], the pest or weed control at 50 µg/cm2, 50 µg/cm2 in assay [1] and in assay [2] was 50 to 100% throughout. Also, in assay [3], the pest or weed control at 200 ppm was 0 to 80%.
Regarding `COc1cc(Cl)c(/N=C(/N/N=C/c2ccc(-c3ncn(-c4ccc(OC(F)(F)F)cc4)n3)cc2)SCOC(=O)C(C)C)c(Cl)c1` [Compound 34C], the pest or weed control at 200 ppm in assay [3] lay in the range of 0 to 80%.
On to `COc1ccc(C(C)/N=C(/N/N=C/c2ccc(-c3ncn(-c4ccc(OC(F)(F)F)cc4)n3)cc2)SCC(=O)O)cc1` (stereo not shown) [Compound 52C], for which the pest or weed control at 50 µg/cm2, 50 µg/cm2 in assay [1] fell in the range of 0 to 50%. The pest or weed control at 200 ppm in assay [3] is 0 to 80%.
As for `COc1ccc(C(C)/N=C(/N/N=C/c2ccc(-c3ncn(-c4ccc(OC(F)(F)F)cc4)n3)cc2)SCC(=O)O)cc1F` (stereo not shown) [Compound 53C], in assay [1], the pest or weed control at 50 µg/cm2, 50 µg/cm2 lay within 0 to 50%. In addition, in assay [3], the pest or weed control at 200 ppm lay within 0 to 80%.
Regarding `CC(C)c1ccccc1/N=C1\SCCCN1/N=C/c1ccc(-c2ncn(-c3ccc(C(F)(F)F)cc3)n2)cc1` [Compound 87C, (2Z,NE)-2-((2-isopropylphenyl)imino)-N-(4-(1-(4-(trifluoromethyl)phenyl)-1H-1,2,4-triazol-3-yl)benzylidene)-1,3-thiazinan-3-amine], in assay [3], the pest or weed control at 200 ppm lay within 0 to 80%.
